Measured values: US20190030114A1, “ISOFORM-SPECIFIC CALPAIN INHIBITORS, METHODS OF IDENTIFICATION, AND USES THEREOF” (WESTERN UNIVERSITY OF HEALTH SCIENCES, priority 2014, published 2019)

Tests used:
[1] = system: retina (GCL, IPL); assay: retinal damage induced by intravitreal NMDA injection, systemic (i.p.) inhibitor; type: in vivo, mice
Protocol: FIG. 8A: Representative images show H&E-stained ganglion cell and Plexiform layers of: i) naïve retina; ii) PBS-treated (intravitreally, 2 μI) or NMDA-treated (intravitreally, 2 μI of 2.5 mM) retina from wild-type mice that had been intraperitoneally injected with vehicle (20% DMSO), Formula I (C2l in the drawing, 0.3 mg/kg) or the pan-calpain inhibitor calpeptin (10 mg/kg) at 30 min before and 6 h after NMDA injection. H&E staining was done at 7 days after NMDA injection.
FIG. 8B: Quantitative analysis of cell number in the GCL of wild-type mice that had been injected intravitreally 7 days earlier with either 2 μI PBS or 2 μI NMDA (2.5 mM). The mice were intraperitoneally injected with vehicle (20% DMSO), a Formula I (C2l in the drawing, 0.3 mg/kg) or the pan-calpain inhibitor calpeptin (10 mg/kg) at 30 min before and 6 h after NMDA injection. Columns represent mean±S.E.M. n=4-6. *p<0.05; **p<0.01; ***p<0.001 versus NMDA plus vehicle-injected group. One-way ANOVA followed by Bonferroni test.
FIG. 8C: Quantitative analysis of thickness of the IPL of wild-type mice that had been injected intravitreally 7 days earlier with either 2 μI PBS or 2 μI NMDA (2.5 mM). The mice were intraperitoneally injected with vehicle (20% DMSO), Formula I (C2l in the drawing, 0.3 mg/kg) or the pan-calpain inhibitor calpeptin (10 mg/kg) at 30 min before and 6 h after NMDA injection.
FIG. 9A: Representative immunoblot of the levels of Spectrin breakdown products (SBDP), full-length PH domain and Leucine-rich repeat Protein Phosphatase 1 (PHLPP1)α and Akt in mouse retinal extracts 6 h after intravitreal injection of PBS (control) or NMDA (2 μI of 2.5 mM). Mice were injected i.p. with vehicle (10% DMSO) or C2l (0.3 mg/kg) 30 min before intravitreal injection.
FIG. 9B: Quantitation of ratios of SBDP/Akt, as determined in retinal extracts 6 h after NMDA or PBS injections. Data represent means±S.E.M. n=4. *p<0.05, ***p<0.001,. One-way ANOVA followed by Bonferroni test.
FIG. 9C: Quantitation of ratios of PHLPP1α/Akt, as determined in retinal extracts 6 h after NMDA or PBS injections. Data represent means±S.E.M. n=4. *p<0.05, ***p<0.001,. One-way ANOVA followed by Bonferroni test.
(§1) FIG. 9E: Quantitative analysis of cell number in the GCL from wild-type mice 7 days after NMDA-injection. Six sections cut through the optic disc from each eye were analyzed. Cell numbers in GCL at a distance between 500 and 1000 μm from the optic disc were counted. Cell densities from 6 sections from each eye were averaged.
as §1, with “FIG. 9F:” for “FIG. 9E:”, “of thickness of” for “of cell number in”, “the IPL” for “the GCL”
as §1, with “9H:” for “9E:”, “calpain-1 KO” for “wild-type”, “averaged. Data represent means±S.E.M. n=6. *p<0.05, **p<0.01, ***p<0.001, One-way ANOVA followed by Bonferroni test.” for “averaged.”
as §1, with “9I:” for “9E:”, “thickness of” for “cell number in”, “IPL of calpain-1” for “GCL from wild-type”, “averaged. Data represent means±S.E.M. n=6. *p<0.05, **p<0.01, ***p<0.001, One-way ANOVA followed by Bonferroni test.” for “averaged.”
FIG. 9J: Comparison of GCL cell numbers in NMDA-treated WT and KO mice without and with C2l treatment. n=6. **p<0.01. Two-tailed t-test. […]

[2] = system: SBDP; assay: SBDP formation in IPL after acute IOP elevation, intravitreal C2l in calpain-1 KO mice; type: in vivo; settings: Mus musculus, intravitreal (1 μl) 2 h after IOP elevation, SBDP at 4 h, read-out: apparent IC50, inhibition of SBDP formation in IPL
Protocol: We used intravitreal C2l injection in order to locally deliver C2l to retina. First, we tested the delivery efficiency by injecting different doses of C2l intravitreally 2 h after IOP elevation in calpain-1 KO mice and analyzing SBDP levels in IPL at 4 h (FIG. 12A and B). […] In all subsequent experiments, 20 μM (1 μl) was used to examine the neuroprotective effects of intravitreal C2l injection. Eyes were collected 3 days after surgery for H&E staining.

[3] = system: retina (GCL, IPL, RGC); assay: acute IOP elevation (acute angle closure glaucoma model), systemic (i.p.) C2l; type: in vivo, mice
[4] = WT mice, i.p. 30 min before and 6 h after NMDA
[5] = calpain-1 KO mice, systemic injection
[6] = i.p. 30 min before NMDA, 6 h after NMDA, WT mice
[7] = injected 2 h after IOP elevation, WT mice, n=5

Compound: CCC(NC(=O)C(CC(C)C)NC(=O)OCc1ccccc1)C(=O)C(=O)NCc1cc(OC)cc(OC)c1 (racemic) [Formula 1, Z-Leu-Abu-CONH—CH2-C6H3 (3, 5-(OMe)2)]
- NMDA-induced retinal damage ([1]; 0.3 mg/kg i.p. 30 min before and 6 h after NMDA, wild-type mice): protective against NMDA-induced retinal damage
- effect on GCL cell survival, KO versus WT mice ([1]; NMDA-treated): lower in KO mice than in WT mice
- NMDA-induced reduction in GCL cell density [1, 4]: significantly suppressed the reduction
- NMDA-induced reduction in IPL thickness [1, 4]: significantly suppressed the reduction
- NMDA-induced decrease in GCL cell density [1, 5]: partially but significantly reversed
- NMDA-induced decrease in IPL thickness [1, 5]: partially but significantly reversed
- NMDA-induced changes in PHLPP1 in retinal extracts [1, 6]: not
- NMDA-induced changes in SBDP in retinal extracts [1, 6]: significantly suppressed
- IC50 [2]: 8 µM
- survival rate of RGC versus vehicle ([3]; injected 2 h after IOP elevation): significantly improved
- RGC counts (brn-3a), IOP-elevated eye [3, 7]: 37.1±2.5 cells/mm
- RGC counts (brn-3a), sham eye [3, 7]: 45.2±5.0 cells/mm
- changes in PHLPP1 and pAkt after IOP elevation ([3]; retina 3 h after IOP elevation, 0.3 mg/kg at 2 h): present in C2l-injected WT mice
